Measurements: US8309550B2, “Kinase inhibitors and their use as pharmaceutical agents” (Shanghai Genomics, Inc., priority 2011, dated 2012)
Where two headings read alike, the source gives them in different places.

Legend:
[1] = tested on: WI-38; assay: 72 h MTT cell viability WI-38 (normal lung); type: cell-based; conditions: Homo sapiens; WI-38, normal lung cell line
From the text: (§1) MIT cytotoxicity assay. The compounds of the invention were subjected to a standard cellular proliferation assay using human cell lines. HeLa cells (Human cervix adenocarcinoma cell line, ATCC NO, CCL-2); A549 cells (Human lung carcinoma cells line, ATCC NO, CCL-185); U2OS cells (Human osteosarcoma cell line, ATCC NO, HTB-96); Eca-109 cells (Human esophageal carcinoma cell line); HepG2 (Human hepatocellular liver carcinoma cell line, ATCC NO, HB-8065); K562 cells (Human chronic myelogenous leukemia cell line, ATCC NO, CCL-243); SK-MEL-28 (Human malignant melanoma cell line, ATCC NO, HTB-72); Molt-4 (Human acute lymphoblastic leukemia cell line, ATCC NO, CRL-1582); H460 (Human large cell lung cancer cell line, ATCC NO, HTB-177); MDA-MB-231 (Human breast adenocarcinoma cell line, ATCC NO, HTB-26); MCF7 (Human breast adenocarcinoma cell line, ATCC NO, HTB-22); ACHN (Human renal cell adenocarcinoma cell line, ATCC NO, CRL-1611); PC-3M (Human prostate adenocarcinoma cell line, ATCC NO CRL-1435); HL60 (Human acute promyelocytic leukemia cell line, ATCC NO, CCL-240); THP-1 (Human acute monocytic leukemia, ATCC NO, TIB-202); Jurkat (Human acute T cell leukemia cell line, ATCC NO, CRL-2063); HCT-116 (Human colorectal carcinoma cell line, ATCC NO, CCL-247); HT-29 (Human colorectal adenocarcinoma cell line, ATCC NO, HTB-38™); WI-38 (Human normal lung cell line, ATCC NO, CCL-75); MRC-5 (Human normal lung cell line, ATCC NO, CCL-171).
(§2) HepG2, MDA-MB-231, WI-38 and MRC-5 cells were obtained from Shanghai Institute of Cell Biology, Chinese Academy of Sciences (Shanghai 200031, China). A549, HeLa, K562, MCF7, ACHN, H460, U2OS, Eca-109, MCF7, HL60, THP-1, Jurkat, HCT-116, HT-29, PC-3M, SK-MEL-28, Molt-4, H460 and […] cells were purchased from ATCC (American Type Culture Collection, USA).
(§3) Standard 72 h MTT (thiazolye blue; 3-[4,5-dimethylthiazol-2-yl]-2,5-diphenyltetrazolium bromide) assays were performed. Briefly, the cell lines used in this study were recovered and cultured according to the conditions recommended. 4000 cells per well were seeded into 96-well plates according to doubling time and incubated overnight at 37° C. Compounds were prepared in DMSO and a ½ dilution series in 100 μl cell culture media, added to cells (in duplicates) with the final DMSO concentration of 0.025%, and incubated for 72 hrs at 37° C. MTT solution (5 mg/ml) was added at 10 μl per well and incubated in the dark at 37° C. for 4 hr. Culture medium and MTT solution was removed. MTT dye was solubilised with 100 μl per well of DMSO with agitation. Absorbance was read at 562 nm and data analyzed using Sigmoid curve-fitting software Origin 6.0 (MicroCal, LLC, USA) to determine IC50 value.

[2] = tested on: Molt-4-luc; assay: 72 h MTT cytotoxicity assay Molt-4-luc; type: cell-based; conditions: Homo sapiens
From the text: as §1, §2, §3

[3] = tested on: A549 cells; assay: 72 h MTT cytotoxicity assay A549; type: cell-based; conditions: Homo sapiens; A549, 72 hrs
From the text: as §1, §2, §3

[4] = biological target: CDK9T1 (Homo sapiens, UniProt P50750); assay: Kinase assay CDK9T1 (Table I); type: biochemical; conditions: read-out: Kinase inhibition, IC50 CDK9T1
Sequence of CDK9T1 (P50750 whole entry): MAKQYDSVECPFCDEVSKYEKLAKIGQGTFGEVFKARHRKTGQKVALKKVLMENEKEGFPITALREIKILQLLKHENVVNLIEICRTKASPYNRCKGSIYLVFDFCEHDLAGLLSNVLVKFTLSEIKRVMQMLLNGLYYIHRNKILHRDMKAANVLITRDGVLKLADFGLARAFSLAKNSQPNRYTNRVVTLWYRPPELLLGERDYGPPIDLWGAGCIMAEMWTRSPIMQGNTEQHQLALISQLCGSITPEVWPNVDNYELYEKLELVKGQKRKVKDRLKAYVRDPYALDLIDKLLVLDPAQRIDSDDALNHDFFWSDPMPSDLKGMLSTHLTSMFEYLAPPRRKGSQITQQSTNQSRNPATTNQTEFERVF
Sequence of CDK9T1 (O60563 whole entry partner): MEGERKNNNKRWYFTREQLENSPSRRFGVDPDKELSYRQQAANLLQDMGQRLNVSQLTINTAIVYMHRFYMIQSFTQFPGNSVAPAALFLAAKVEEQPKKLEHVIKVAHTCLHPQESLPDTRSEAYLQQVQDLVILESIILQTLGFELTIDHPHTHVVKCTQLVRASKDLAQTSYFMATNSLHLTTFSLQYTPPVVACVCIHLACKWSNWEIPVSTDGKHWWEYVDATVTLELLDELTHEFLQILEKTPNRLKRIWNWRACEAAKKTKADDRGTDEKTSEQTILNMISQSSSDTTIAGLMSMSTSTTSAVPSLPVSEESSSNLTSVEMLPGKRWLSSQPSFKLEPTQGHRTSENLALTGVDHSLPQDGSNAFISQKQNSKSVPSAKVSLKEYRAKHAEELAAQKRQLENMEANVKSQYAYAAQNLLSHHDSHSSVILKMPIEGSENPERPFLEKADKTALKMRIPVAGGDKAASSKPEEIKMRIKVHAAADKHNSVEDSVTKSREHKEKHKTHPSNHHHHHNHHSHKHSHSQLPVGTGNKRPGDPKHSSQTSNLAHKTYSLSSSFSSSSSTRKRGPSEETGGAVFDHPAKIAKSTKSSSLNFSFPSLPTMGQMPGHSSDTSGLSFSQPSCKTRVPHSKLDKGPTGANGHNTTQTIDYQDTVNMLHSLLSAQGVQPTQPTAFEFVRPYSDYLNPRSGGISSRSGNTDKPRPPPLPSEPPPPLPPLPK
Protocol: [The source words this procedure for another target and reports this target under the same test.] Kinase assays. The compounds from the example above were tested for their ability to inhibit kinases. Recombinant human CDK2/cyclinA (PV3267), CDK1/cyclinB (PV3292), CDK5/p35 (PV3000) and Aurora A (PV3612) were purchased from Invitrogen (Carlsbad, Calif., USA). Kinase dosage and Z′-LYTE™ substrate for each kinase assay is as follows: CDK2/cyclinA-8 ng/reaction, Ser/Thr 12 Peptide; CDK1/cyclinB-0.8 ng/reaction, Ser/Thr 12 Peptide, CDK5/p35-0.8 ng/reaction, Ser/Thr 12 Peptide, and Aurora A-16 ng/reaction, Ser/Thr 1 Peptide. All enzymatic assays were performed using Z′-LYTE™ Kinase Assay Kits and were carried out following protocols provided by Invitrogen. To prepare stock solutions, compounds were dissolved at 10 mM in 100% DMSO and stored at 4° C. in amber glass vials. Enzyme reactions were initiated by adding recombinant enzyme and Z′-LYTE™ Ser/Thr peptide substrate and ATP mixture to 384-well plates containing diluted test compounds. Kinase and corresponding peptide substrate were incubated for 1 hr at room temperature in the presence of varying amounts of test compound with reaction buffer (20 μM ATP, […] [pH 7.5], 5 mM MgCl2, 0.5 mM EGTA, 0.005% Brij-35). Development buffer was added and incubated for another one hour at room temperature. Reactions were terminated by addition of stop buffer, and fluorescence emission intensity ratio 445 nm/520 nm (excited at 400 nm) was quantified by VICTOR-3 Multilabel Reader (Perkin-Elmer, Waltham, Mass., USA). Phosphorylation was calculated from the emission ratio. IC50 was determined using Sigmoid curve-fitting software Origin 6.0 (MicroCal, LLC, Northampton, Mass., USA).

[5] = tested on: MDA-MB-231-luc; assay: 72 h MTT cell viability MDA-MB-231-luc; type: cell-based; conditions: Homo sapiens
From the text: as §1, §2, §3

[6] = tested on: K562 cells; assay: 72 h MTT cytotoxicity assay K562; type: cell-based; conditions: Homo sapiens; K562, 72 hrs
From the text: as §1, §2, §3

[7] = tested on: Eca-109 cells; assay: 72 h MTT cytotoxicity assay Eca-109; type: cell-based; conditions: Homo sapiens; Eca-109, 72 hrs
From the text: as §1, §2, §3

[8] = tested on: HeLa cells; assay: 72 h MTT cytotoxicity assay HeLa; type: cell-based; conditions: Homo sapiens
From the text: as §1, §2, §3

[9] = tested on: MCF7; assay: 72 h MTT cytotoxicity assay MCF7; type: cell-based; conditions: Homo sapiens; MCF7, 72 hrs
From the text: as §1, §2, §3

[10] = tested on: SK-MEL-28-luc; assay: 72 h MTT cytotoxicity assay SK-MEL-28-luc; type: cell-based; conditions: Homo sapiens
From the text: as §1, §2, §3

[11] = tested on: Jurkat; assay: 72 h MTT cell viability Jurkat; type: cell-based; conditions: Homo sapiens
From the text: as §1, §2, §3

[12] = tested on: HCT 116; assay: 72 h MTT cell viability HCT 116; type: cell-based; conditions: Homo sapiens
From the text: as §1, §2, §3

[13] = tested on: MRC-5; assay: 72 h MTT cell viability MRC-5 (normal lung); type: cell-based; conditions: Homo sapiens, MRC5
From the text: as §1, §2, §3

[14] = tested on: HT-29; assay: 72 h MTT cell viability HT-29; type: cell-based; conditions: Homo sapiens
From the text: as §1, §2, §3

[15] = read-out: Cell Viability IC50 Jurkat
[16] = read-out: Cell Viability IC50 HCT 116
[17] = MRC-5, normal lung cell line, read-out: Cell Viability IC50 MRC-5
[18] = read-out: Cell Viability IC50 HT-29
[19] = HCT116, Table III, read-out: Cellular effect in mammalian cells IC50 HCT116
[20] = HT29, Table III, read-out: Cellular effect in mammalian cells IC50 HT29
[21] = Table III, read-out: Cellular effect in mammalian cells IC50 Jurkat
[22] = MRC-5, Table III, read-out: Cellular effect in mammalian cells IC50 MRC-5

Row | IC50 [4] [nM] | IC50 [5] [nM] | IC50 [11, 15] [nM] | IC50 [12, 16] [nM] | IC50 [14, 18] [nM] | IC50 [12, 19] [nM] | IC50 [14, 20] [nM] | IC50 [11, 21] [nM] | Compound | IC50 [1] [nM] | IC50 [2] [nM] | IC50 [3] [nM] | IC50 [6] [nM] | IC50 [7] [nM] | IC50 [8] [nM] | IC50 [9] [nM] | IC50 [10] [nM] | IC50 [13, 17] [nM] | IC50 [13, 22] [nM]
1 | 1400 | 5940 | – | – | – | – | – | – | CCCn1cc(-c2ccnc(Nc3ccc(O)cc3)n2)c2cccnc21 [Compound 15, 4-(4-(1-Propyl-1H-pyrrolo[2,3-b]pyridin-3-yl)pyrimidin-2-ylamino)phenol] | > 10000 | 2460 | 4980 | 9810 | 20000 | 10400 | 120 | 9430 | – | –
2 | 140 | 5270 | – | – | – | – | – | – | CCCn1cc(-c2ccnc(Nc3cccc(O)c3)n2)c2cccnc21 [Compound 16, 3-(4-(1-Propyl-1H-pyrrolo[2,3-b]pyridin-3-yl)pyrimidin-2-ylamino)phenol] | > 10000 | 3820 | 3330 | 7680 | 12900 | 14200 | 2170 | 8510 | – | –
3 | 150 | 4680 | 3420 | > 10000 | 2930 | – | – | – | CCn1cc(-c2ccnc(Nc3cccc(C#N)c3)n2)c2cccnc21 [Compound 20, 3-(4-(1-Ethyl-1H-pyrrolo[2,3-b]pyridin-3-yl)pyrimidin-2-ylamino)benzonitrile] | – | 3430 | 3070 | 6110 | > 10000 | 5550 | > 10000 | 7790 | 15100 | –
4 | 97 | – | 1470 | 1890 | 1460 | – | – | – | CCCn1cc(-c2ccnc(Nc3cccc(S(N)(=O)=O)c3)n2)c2cccnc21 [Compound 22, 3-(4-(1-Propyl-1H-pyrrolo[2,3-b]pyridin-3-yl)pyrimidin-2-ylamino)benzenesulfonamide] | – | 2450 | 2820 | 1420 | 3400 | 1670 | 1130 | 2720 | 5170 | –
5 | 1010 | – | 1790 | 3430 | 1350 | – | – | – | CCCn1cc(-c2ccnc(Nc3ccc(C)c(S(=O)(=O)N4CCOCC4)c3)n2)c2cccnc21 [Compound 24, N-(4-Methyl-3-(morpholinosulfonyl)phenyl)-4-(1-propyl-1H-pyrrolo[2,3-b]pyridin-3-yl)pyrimidin-2-amine] | > 10000 | 4510 | 3690 | 3680 | 5300 | 1600 | 3480 | 3050 | 3880 | –
6 | 41 | 1280 | – | 3360 | 200 | – | – | – | CCCn1cc(-c2ccnc(Nc3cccc(S(N)(=O)=O)c3)n2)c2nc(Cl)cc(C)c21 [Compound 42, 3-(4-(5-Chloro-7-methyl-1-propyl-1H-pyrrolo[3,2-b]pyridin-3-yl)pyrimidin-2-ylamino)benzenesulfonamide] | – | 4790 | 1730 | > 10000 | 10500 | 9930 | > 10000 | 9450 | 14600 | –
7 | 8.6 | – | 220 | 320 | 480 | – | – | – | CCCn1cc(-c2ccnc(Nc3cccc(S(N)(=O)=O)c3)n2)c2ccnc(Cl)c21 [Compound 96, 3-(4-(7-chloro-1-propyl-1H-pyrrolo[2,3-c]pyridin-3-yl)pyrimidin-2-ylamino)benzenesulfonamide] | > 10000 | 220 | 120 | 220 | > 10000 | 150 | 250 | 260 | 890 | –
8 | 0.4 | 750 | – | – | – | – | – | – | CCCn1cc(-c2ccnc(Nc3ccc(C)c(S(=O)(=O)N4CCOCC4)c3)n2)c2ccncc21 [Compound 102, N-(4-Methyl-3-(morpholinosulfonyl)phenyl)-4-(1-propyl-1H-pyrrolo[2,3-c]pyridin-3-yl)pyrimidin-2-amine] | – | 230 | 570 | 1440 | 3520 | 490 | 1300 | 990 | – | –
9 | 0.6 | 30 | 5.4 | – | – | – | – | – | CCCn1cc(-c2ccnc(Nc3cccc(S(N)(=O)=O)c3)n2)c2ccncc21 [Compound 111, 3-(4-(1-Propyl-1H-pyrrolo[2,3-c]pyridin-3-yl)pyrimidin-2-ylamino)benzenesulfonamide] | – | 10 | 10 | 30 | 50 | 10 | 80 | 10 | 60 | –
10 | – | – | – | – | – | 4 | 20 | – | CCCn1cc(-c2ccnc(Nc3cccc(S(N)(=O)=O)c3)n2)c2ccncc21 [SG51] | – | – | – | – | – | – | – | – | – | –
11 | – | – | – | – | – | 280 | 450 | 690 | CCCn1cc(-c2ccnc(Nc3ccc(C)c(S(=O)(=O)N4CCOCC4)c3)n2)c2ccncc21 [SG52] | – | – | – | – | – | – | – | – | – | 1630
12 | – | – | – | – | – | – | – | 360 | CCCn1cc(-c2ccnc(Nc3cccc(S(N)(=O)=O)c3)n2)c2nc(Cl)cc(C)c21 [SG53] | – | – | – | – | – | – | – | – | – | –
13 | – | – | – | – | – | 3460 | 150 | 1120 | CCCn1cc(-c2ccnc(Nc3ccc(S(N)(=O)=O)cc3)n2)c2nc(Cl)cc(C)c21 [SG54] | – | – | – | – | – | – | – | – | – | 3970
